Data taken from US20260055061A1, “HALOPHTHALIMIDE COMPOUNDS AND METHODS OF USE AGAINST TBI, INFLAMMATORY DISORDER, AUTOIMMUNE DISORDER, NEURODEGENERATIVE DISEASE OR VIRAL INFECTION” (The United States of America, as represented by the …, priority 2022, published 2026).

What was measured:
[1] = biological target: cereblon (CRBN/DDB1-CUL4A-Rbx1 complex) / BRD3 (Homo sapiens (Human), UniProt Q96SW2); test: Cereblon/BRD3 binding assay (AlphaScreen / FRET); conditions: for cereblon binding (in words): cereblon/BRD3 binding FRET assay
Procedure: After 30 min of incubation with shaking at room temperature, AlphaLISA anti-FLAG Acceptor and Alpha Glutathione Donor beads (PerkinElmer) were sequentially added and then incubated for 1 hr at room temperature for each of the added chemicals. Alpha counts were thereafter read on a Synergy Neo2 (BioTek) for the analysis. Relative activity or inhibition was calculated as the highest value, which was set to 100%, and the lowest value was set to 0% after subtraction of the “blank value” from all readings.
After 30 min of incubation with shaking at room temperature, AlphaLISA anti-FLAG Acceptor and Alpha Glutathione Donor beads (PerkinElmer) were sequentially added and then incubated for 1 h at room temperature for each of the added chemicals. Alpha counts were thereafter read on a Synergy Neo2 (BioTek) for the analysis. The relative activity of the alpha signal was calculated after subtraction of the “blank value” from all readings, and the value of the vehicle group was then set as 100%.

Aiolos = Aiolos (Homo sapiens (Human), UniProt Q9UKT9); test: Aiolos degradation in MM1.S cells (Western blot); type: cell-based; conditions: 1 μM, relative to GAPDH
Procedure: (§1) For Western blot analysis, total proteins were extracted using RIPA buffer (ThermoFisher Scientific, Waltham, MA) containing Halt Protease Inhibitor Cocktail (ThermoFisher Scientific). […] After incubation at 4° C. overnight, the following HRP conjugated secondary antibodies were used: (i) goat anti-rabbit IgG (ThermoFisher Scientific) for ikaros and aiolos, and (ii) goat anti-mouse IgG (ThermoFisher Scientific) for SALL4 and GAPDH. […] Antigen-antibody complexes were detected using enhanced chemiluminescence (Thermo, iBright CL1500).
(§2) Specifically, MM1.S cells were obtained from ATCC (Manassas, VA, USA), grown in RPMI media supplemented with 10% FBS, penicillin 100 U/mL, and streptomycin […], and maintained at 37° C. and 5% CO2.
(§3) For Western blot analysis, total proteins were extracted using RIPA buffer (ThermoFisher Scientific, Waltham, MA, USA) containing Halt Protease Inhibitor Cocktail (ThermoFisher Scientific). Thereafter, the proteins were separated by gel electrophoresis and then transferred to polyvinylidene difluoride (PVDF) membranes (ThermoFisher Scientific), as described previously. […] Antigen-antibody complexes were detected using enhanced chemiluminescence (ThermoFisher Scientific, iBright CL1500).

CCI-induced TBI mice = test: CCI mouse model of TBI: DigiGait gait analysis; type: in vivo
Procedure: In vivo model of TBI: Mice were anesthetized with 2.5% tribromoethanol (Avertin: 250 mg/kg; Sigma, St. Louis, MO, USA) and placed in a stereotaxic frame (Kopf Instruments, Tujunga, CA, USA). A 4 mm craniotomy was performed using sterile procedures; the craniotomy point was selected midway between the lambda and bregma sutures and laterally midway between the central suture and the temporalis muscle. The skull fragment was then carefully removed without disruption of the underlying dura. Prior to injury induction, the tip of the impactor was angled and kept perpendicular to the exposed cortical surface. The mouse CCI instrument consisted of an electromagnetic impactor, Impact One (Leica Biosystems Inc., Buffalo Grove, IL, USA) that allows independent alteration of injury severity by controlling contact velocity and the level of cortical deformation. In these experiments, the contact velocity was set at 5.0 m/sec, the dwell time was set at 0.2 s and the deformation depth was set at 2 mm to produce a moderate TBI. The injury site was allowed to dry prior to suturing the wound. During surgery and recovery, the body temperature of the animals was maintained at 36-37° C. by using a heating pad. […] Mice were randomized following CCI to treatment with either of two doses of TFBP (16.25 mg/kg and 32.5 mg/kg, i.p.) or saline, and were dosed at 1 and 24 hr after the injury.
Behavioral assessment for motor functions and coordination: Behavioral tests were performed 1 week and 2 weeks after injury, to assess changes in motor functions and coordination. All tests were performed during the animals' light phase; cages were transported to testing rooms at least 30 min prior to testing.
Gait analysis: For the gait analysis, mice were tested on a fixed-speed treadmill apparatus (DigiGait; Mouse Specifics). Mice were habituated to the apparatus for 1 min, and then given a 1-min run at 5 cm/s. Following a 1-min rest, the treadmill speed was increased to 15 cm/s. Video was collected at high speed from a ventrally placed camera, and 3-5 s of representative gait video was selected by an experienced but blinded user for automated analysis.
In Vivo Model of TBI: TBI studies were conducted in 8-week-old male C57/BL6 mice (25-30 g; n=20), Jackson Laboratory, Bar Harbor, Maine USA. Mice were randomly assigned to four groups prior surgery, CMC+Sham, CMC+TBI, compound 30 (Low dose (LD), 14.78 mg/kg, prepared in 1% CMC in PBS)+TBI, compound 30 (High dose (HD), 29.57 mg/kg)+TBI, and evaluated the effects of compound 30 on TBI. Mice were assessed for gait function and motor coordination, balance function. Animals were subsequently evaluated for cellular changes using histological and immunohistochemistry staining. […]

SALL4 = SALL4 (Homo sapiens (Human), UniProt Q9UJQ4); test: SALL4 expression in Tera-1 cells (Western blot); type: cell-based; conditions: for SALL4 levels: human Tera-1 cells, 0.01, 0.1, 1 μM, relative to GAPDH
Procedure: as §1, §2
For Western blot analysis, total proteins were extracted using RIPA buffer (ThermoFisher Scientific, Waltham, MA, USA) containing Halt Protease Inhibitor Cocktail (ThermoFisher Scientific). Thereafter, the proteins were separated by gel electrophoresis and then transferred to polyvinylidene difluoride (PVDF) membranes (ThermoFisher Scientific), as described previously. […] After incubation at 4° C. overnight, the following HRP-conjugated secondary antibodies were used: (i) goat anti-rabbit IgG (ThermoFisher Scientific) for Ikaros and Aiolos, and (ii) goat anti-mouse IgG (ThermoFisher Scientific) for SALL4 and GAPDH. […] Antigen-antibody complexes were detected using enhanced chemiluminescence (ThermoFisher Scientific, iBright CL1500).

Ikaros = Ikaros (Homo sapiens (Human), UniProt Q13422); test: Ikaros degradation in MM1.S cells (Western blot); type: cell-based; conditions: 1 μM, relative to GAPDH
Procedure: as §1, §2, §3

SARS-CoV-2 = test: Anti-SARS-CoV-2 activity (FIG. 6); type: cell-based
RAW 264.7 cells = test: Cell viability of drug treated RAW 264.7 cells (CellTiter 96 AQueous One, MTS); conditions: RAW 264.7 cells, percentage of vehicle control value, mean ± S.E.M., n = 3
TNF-α = test: LPS-induced TNF-α production in RAW 264.7 cells (ELISA); type: cell-based, mouse; conditions: LPS-challenged RAW 264.7 cells, percentage of vehicle control value (control = 100%), mean ± S.E.M., n = 3
Procedure: Enzyme-linked immunosorbent assay for TNF-α protein: Media TNF-α levels were measured by use of the Biolegend ELISA MAX Set Delux ELISA (#430904). The protocol used was that recommended by the manufacturer. In brief, a day prior to performing the assay, a 96 well plate was coated with a capture antibody directed against TNF-α. The following day the assay plate was washed and blocked with the kit blocking agent for 1 h while being mixed on a plate shaker at 200 rpm (all incubations were mixed at 200 rpm unless stated otherwise). A TNF-α protein standard curve was prepared in the assay diluent following the kit instructions and unknown media samples were likewise diluted in the same assay diluent. After blocking, the plate was washed and then both the standards and unknown media samples were added to the plate in duplicate. The standards and unknown samples were incubated for 2 h. After the incubation, the plate was washed and then the biotin labeled detection antibody was added to each well and incubated for a further 1 h. After this incubation, the avidin-HRP conjugate complex was added to each well and incubated for 30 min. The plate was washed and the chromogenic substrate 3,3′,5,5′-tetramethylbenzidine solution was added to each well. At this point the plate was covered and incubated in the dark for 15 min, with no mixing. After 15 min the chromogenic reaction was stopped by the addition of 2 N H2SO4 and the absorbance was read at 450 nm and for background subtractions at 570 nm, on a SPECTRAmax PLUS plate reader. The absorbances were used to generate a TNF-α a protein standard curve and the protein levels in the unknown samples were determined using SoftMax Pro V5, Molecular Devices.
(§4) Cells were propagated as described by ATCC guidelines.

[2] = Cytotoxicity in the anti-SARS-CoV-2 evaluation (FIG. 6); type: cell-based; conditions: 25 μM
[3] = tested on: LPS-induced nitrite in RAW 264.7 cells; test: LPS-induced nitrite production in RAW 264.7 cells (Griess reagent / fluorometric kit); type: cell-based, mouse; conditions: LPS-challenged RAW 264.7 cells, percentage of vehicle control value (control = 100%), mean ± S.E.M., n = 3
Procedure: Nitrite ion detection in drug treated […] cell culture media: To measure the levels of nitrite ion NO2—) the Griess Reagent System (Promega, Madison, WI, Cat #G2930) was utilized. The protocol followed was that recommended by the manufacturer. In brief a NO2— ion standard curve was prepared in culture media of the same composition to that used for the cell culture study. The concentration range of the standard curve was from 1.5 µM to 100 µM. Equal volumes (50 μL) of standards and unknown samples were added to clear 96 well plates in duplicate. Then 50 μL of sulfanilamide solution was added to each well and the plate was covered and incubated in the dark for 10 min. After the incubation period 50 μL of N-1-napthylethylenediamine dihydrochloride solution was added to each well and the plate was incubated in dark for a further 10 min. After this incubation, the plate was read at 550 nm on a SPECTRAmax PLUS plate reader and the absorbances were used to generate a NO2— standard curve and the NO2— ion levels of the unknown samples are determined using SoftMax Pro V5, Molecular Devices.
Most neurons are highly vulnerable to RNS and ROS. Nitric oxide (NO) is one of RNSs, which is very short lived and cannot be readily measured. However, nitrite is a stable end product of nitric oxide metabolism. Therefore, nitrite acts as a surrogate measure of NO. The Griess Reagent System (Promega Corporation, Madison, WI) can be applied to measure nitrite levels in culture media following the manufacturer's protocol, and this system was used in the present study as it is a more sensitive assay compared to quantifying actions on TNF-α by ELISA assay. […] This challenge induces high level of TNF-α protein accompanied by a robust generation of nitrite.
as §4

cereblon (CRBN/DDB1-CUL4A-Rbx1 complex) / BRD3, sequence (Q96SW2 whole entry): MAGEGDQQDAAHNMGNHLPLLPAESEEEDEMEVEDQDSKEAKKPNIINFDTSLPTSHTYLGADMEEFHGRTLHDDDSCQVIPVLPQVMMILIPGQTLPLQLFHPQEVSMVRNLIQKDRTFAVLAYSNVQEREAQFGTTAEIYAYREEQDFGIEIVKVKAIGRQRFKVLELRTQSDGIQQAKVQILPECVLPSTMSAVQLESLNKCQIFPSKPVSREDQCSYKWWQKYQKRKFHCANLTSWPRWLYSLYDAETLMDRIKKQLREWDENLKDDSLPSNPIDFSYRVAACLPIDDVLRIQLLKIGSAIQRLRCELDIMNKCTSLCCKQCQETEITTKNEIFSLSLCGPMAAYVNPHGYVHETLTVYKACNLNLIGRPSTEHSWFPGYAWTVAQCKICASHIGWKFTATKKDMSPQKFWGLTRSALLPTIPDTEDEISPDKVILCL
cereblon (CRBN/DDB1-CUL4A-Rbx1 complex) / BRD3, sequence (Q16531 whole entry partner): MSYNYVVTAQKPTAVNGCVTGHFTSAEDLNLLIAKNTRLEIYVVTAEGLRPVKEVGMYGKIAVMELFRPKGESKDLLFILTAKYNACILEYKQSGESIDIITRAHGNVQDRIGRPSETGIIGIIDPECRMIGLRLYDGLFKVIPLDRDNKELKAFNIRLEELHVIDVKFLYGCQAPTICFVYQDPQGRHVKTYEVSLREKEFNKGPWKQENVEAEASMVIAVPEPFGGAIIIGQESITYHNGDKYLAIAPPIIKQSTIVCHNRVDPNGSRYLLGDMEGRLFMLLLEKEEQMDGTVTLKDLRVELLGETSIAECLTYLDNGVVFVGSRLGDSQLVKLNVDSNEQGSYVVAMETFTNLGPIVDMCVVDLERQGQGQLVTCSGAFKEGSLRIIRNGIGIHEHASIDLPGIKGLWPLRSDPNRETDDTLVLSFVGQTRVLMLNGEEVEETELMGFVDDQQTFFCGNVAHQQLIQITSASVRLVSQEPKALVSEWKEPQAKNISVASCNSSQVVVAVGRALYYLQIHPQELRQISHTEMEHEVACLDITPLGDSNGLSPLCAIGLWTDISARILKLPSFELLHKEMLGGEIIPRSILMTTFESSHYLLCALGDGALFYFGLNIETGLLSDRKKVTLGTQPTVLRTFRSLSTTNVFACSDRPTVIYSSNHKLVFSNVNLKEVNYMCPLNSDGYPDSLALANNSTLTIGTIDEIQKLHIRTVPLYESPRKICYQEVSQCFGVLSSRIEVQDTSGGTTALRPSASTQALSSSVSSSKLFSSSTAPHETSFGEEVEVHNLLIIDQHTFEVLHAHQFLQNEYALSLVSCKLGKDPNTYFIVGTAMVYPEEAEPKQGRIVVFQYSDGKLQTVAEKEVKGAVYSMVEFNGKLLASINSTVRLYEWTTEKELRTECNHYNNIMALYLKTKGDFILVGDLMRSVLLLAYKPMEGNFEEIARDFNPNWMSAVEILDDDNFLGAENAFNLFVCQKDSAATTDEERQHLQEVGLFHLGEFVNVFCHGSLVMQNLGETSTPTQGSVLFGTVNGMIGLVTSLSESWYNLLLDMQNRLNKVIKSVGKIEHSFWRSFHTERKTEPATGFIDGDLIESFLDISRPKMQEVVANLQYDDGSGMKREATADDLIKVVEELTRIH
cereblon (CRBN/DDB1-CUL4A-Rbx1 complex) / BRD3, sequence (Q13619 whole entry partner): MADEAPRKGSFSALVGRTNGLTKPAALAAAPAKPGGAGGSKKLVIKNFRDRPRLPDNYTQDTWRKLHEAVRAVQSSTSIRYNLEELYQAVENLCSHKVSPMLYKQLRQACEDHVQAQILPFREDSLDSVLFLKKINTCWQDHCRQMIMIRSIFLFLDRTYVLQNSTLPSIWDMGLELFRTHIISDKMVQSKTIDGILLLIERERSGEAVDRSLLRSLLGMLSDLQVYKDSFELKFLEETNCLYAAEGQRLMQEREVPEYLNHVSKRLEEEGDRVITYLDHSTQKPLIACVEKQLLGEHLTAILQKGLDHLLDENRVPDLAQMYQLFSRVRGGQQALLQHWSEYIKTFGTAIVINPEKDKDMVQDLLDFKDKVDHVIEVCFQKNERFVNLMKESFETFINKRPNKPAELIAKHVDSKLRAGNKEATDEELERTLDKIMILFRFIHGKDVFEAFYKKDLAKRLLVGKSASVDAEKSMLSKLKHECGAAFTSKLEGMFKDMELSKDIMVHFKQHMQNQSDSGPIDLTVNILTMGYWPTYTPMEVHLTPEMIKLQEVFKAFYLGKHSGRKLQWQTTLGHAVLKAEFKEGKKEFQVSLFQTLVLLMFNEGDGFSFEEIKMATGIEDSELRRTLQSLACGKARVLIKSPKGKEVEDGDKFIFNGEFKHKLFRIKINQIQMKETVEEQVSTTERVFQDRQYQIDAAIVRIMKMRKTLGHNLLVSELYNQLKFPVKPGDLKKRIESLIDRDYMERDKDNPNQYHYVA
cereblon (CRBN/DDB1-CUL4A-Rbx1 complex) / BRD3, sequence (P62877 whole entry partner): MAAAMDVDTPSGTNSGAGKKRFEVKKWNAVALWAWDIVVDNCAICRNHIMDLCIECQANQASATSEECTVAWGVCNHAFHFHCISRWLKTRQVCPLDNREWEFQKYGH

Question: Which IC50 ([1]; Example 6, FIG. 28A) does the source give for “4-amino-7-fluoro-2-(2-oxo-6-thioxopiperidin-3-yl)-3-thioxoisoindolin-1-one [Compound 30]” here?
Answer: 2.66 µM

Question: What about the “cereblon binding (in words)” value [1] of the same compound?
Answer: potently bind to cereblon

Question: And the Aiolos levels (Aiolos)?
Answer: no significant effect

Question: And the “gait % of brake phase” value (CCI-induced TBI mice; high dose 29.57 mg/kg)?
Answer: impairment of brake phase was ameliorated

Question: And the “gait propel time and % of propel phase” value (CCI-induced TBI mice; high dose 29.57 mg/kg)?
Answer: significantly mitigate propel time and % of propel phase

Question: And the gait brake time (CCI-induced TBI mice; low dose 14.78 mg/kg, 1 and 2 weeks after TBI)?
Answer: significantly mitigated the deficit of brake time

Question: And the SALL4 levels (SALL4)?
Answer: no significant effect

Question: And the Ikaros levels (Ikaros)?
Answer: no significant effect

Question: Which results are given for Nc1cccc2c1C(=O)N(C1CCC(=O)NC1=O)C2=O (racemic) [Pomalidomide, pomalidomide, reference compound]?
Answer: cereblon binding (in words) [1]: potently bind to cereblon; Aiolos levels (Aiolos): dramatically lowerered; SALL4 expression levels (SALL4; Tera-1 cells, 1 μM): induced a decrease in expression levels of SALL4; SALL4 levels (SALL4): dramatically lowerered; Ikaros levels (Ikaros): dramatically lowerered

Question: Which SARS-CoV-2 inhibitory activity (SARS-CoV-2) does the source give for C[C@@H]1[C@@H](N2C(=O)c3c(F)ccc(F)c3C2=O)C[C@H]2C[C@@H]1C2(C)C [Compound 18, 4,7-Difluoro-2-((1S,2S,3S,5R)-2,6,6-trimethylbicyclo[3.1.1]heptan-3-yl) isoindoline-1,3-dione] here?
Answer: potent SARS-CoV-2 inhibitory activity

Question: And the “Cell Viability % Δ” value (RAW 264.7 cells; 1 μM)?
Answer: 102 ± 4%

Question: What about the “Cell Viability % Δ” value (RAW 264.7 cells; 10 μM) of the same compound?
Answer: 76 ± 5%

Question: And the “TNF-α % Δ” value (TNF-α; 1 μM)?
Answer: 101 ± 5%

Question: What about the “TNF-α % Δ” value (TNF-α; 10 μM) of the same compound?
Answer: 89 ± 5%

Question: And the cytotoxicity [2]?
Answer: preliminarily acceptable cytotoxicity

Question: What about the “nitrite level, % of vehicle control” value ([3]; 1 μM) of the same compound?
Answer: 96 ± 4%

Question: What about the “nitrite level, % of vehicle control” value ([3]; 10 μM) of the same compound?
Answer: 71 ± 4%
